# Like-named read-outs stand apart in the source and are kept apart here.
# Tests used:
# CYP1A1 [1] = conditions: for mCherry fluorescence intensity at different concentrations: real-time, TCDD positive control
# Experimental: The CYP1A1 fluorescently labelled stem cell line-derived hepatic organoids were treated with the selected hazardous chemicals, tert-butylhydroquinone (tBHQ), 1,2-naphtoquinone (1,2-NQ), and 1,4-naphtoquinone (1,4-NQ) to observe the changes in mCherry fluorescence intensity in real-time.
# CYP1A1 [2] = test: CYP1A1 mRNA expression level in CYP1A1-mCherry hPSC-derived hepatic organoids; type: cell-based, human
# [3] = hepatic organoids, real-time fluorescence, 24 hours of treatment
smiles,measurement,setting,value
"O=C1C=Cc2ccccc2C1=O [1,2-NQ, 1,2-Naphtoquinone]",mCherry fluorescence intensity at different concentrations,CYP1A1 [1]; hepatic organoids,increased in a concentration-dependent manner
"O=C1C=CC(=O)c2ccccc21 [1,4-NQ, 1,4-Naphtoquinone]",mCherry fluorescence intensity at different concentrations,CYP1A1 [1]; hepatic organoids,increased in a concentration-dependent manner
"Cc1ccc2cc3c(ccc4ccccc43)c3c2c1CC3 [3-MC, 3-methylcholanthrene]",mCherry fluorescence intensity in hepatic organoids,CYP1A1 [1]; [3],increase
Cc1ccccc1N=Nc1ccc(NC(=O)c2ccnn2C)c(C)c1 [CH223191],"mCherry fluorescence intensity, treated together with AHR agonists","CYP1A1 [1]; hepatic organoids, treated together with TCDD and BaP",decreased
same,"mCherry fluorescence intensity, treated together with three hazardous chemicals","CYP1A1 [1]; hepatic organoids, treated together with tBHQ, 1,2-NQ, 1,4-NQ",decreased
same,"CYP1A1 gene expression level, treated together with AHR agonists",CYP1A1 [2]; treated together with TCDD and BaP,decreased
same,"CYP1A1 mRNA expression level, treated together with three hazardous chemicals","CYP1A1 [2]; treated together with tBHQ, 1,2-NQ, 1,4-NQ",decrease
"COc1cccc2c1C(=O)c1c(O)c3c(c(O)c1C2=O)C[C@@](O)(C(=O)CO)C[C@@H]3O[C@H]1C[C@H](N)[C@H](O)[C@H](C)O1 [DOX, doxorubicin]",mCherry fluorescence intensity in hepatic organoids,CYP1A1 [1],increase
"O=Cc1c2c(cc3c1=Nc1ccccc1-3)=Nc1ccccc1-2 [FICZ, 6-formylindolo [3,2-B]carbazole]",mCherry fluorescence intensity in hepatic organoids,CYP1A1 [1]; [3],increase
"Clc1cc2c(cc1Cl)Oc1cc(Cl)c(Cl)cc1O2 [TCDD, 2,3,7,8-tetrachlorodibenzo-p-dioxin]","mCherry fluorescence intensity, time-lapse imaging","CYP1A1 [1]; hepatic organoids, 3-hour intervals up to 72 hours after treatment",increased in a time-dependent manner
same,mCherry fluorescence,"CYP1A1 [1]; hepatic organoids, 24 hours after treatment, imaging device",increase
same,CYP1A1 mRNA expression level,CYP1A1 [2]; 24 hours after treatment,increased
COc1cccc2c1C(=O)c1c(O)c3c(c(O)c1C2=O)C[C@@](O)(C(C)=O)C[C@@H]3O[C@H]1C[C@H](N)[C@H](O)[C@H](C)O1 [daunorubicin],mCherry fluorescence intensity in hepatic organoids,CYP1A1 [1],increase
CC(=O)[C@]1(O)Cc2c(O)c3c(c(O)c2[C@@H](O[C@H]2C[C@H](N)[C@H](O)[C@H](C)O2)C1)C(=O)c1ccccc1C3=O [idarubicin],mCherry fluorescence intensity in hepatic organoids,CYP1A1 [1],increase
Cc1oncc1C(=O)Nc1ccc(C(F)(F)F)cc1 [leflunomide],mCherry fluorescence intensity in hepatic organoids,CYP1A1 [1],increase
"CC(C)(C)c1cc(O)ccc1O [tBHQ, tert-Butylhydroquinone]",mCherry fluorescence intensity at different concentrations,CYP1A1 [1]; hepatic organoids,increased in a concentration-dependent manner

# — patent publication US20250136946A1, “REAL-TIME CHEMICAL SCREENING METHOD USING LIVER ORGANOIDS FLUORESCENTLY LABELED WITH CYTOCHROME P450 1A1 ENZYME” (priority 2023, published 2025)
